# Literature values as cited in PubChem BioAssay AID1259409 (Chemical Carcinogenesis Research Information System (CCRIS), 2018).
# Tested on: rodent chemically induced tumor inhibition, incidence and multiplicity
# Test: CCRIS tumor inhibitor studies
compound,measurement,setting,value
CN=C(NC#N)NCCSCc1nc[nH]c1C,"tumour outcome (control, treated, inhibition, significance)","Carcinogen: 7,12-DIMETHYLBENZ[A]ANTHRACENE, 57-97-6, Dose [Inhibitor]: 0, 10 MG A WK IN DRINKING WATER BEGINNING 1 WK POST CARCINOGEN DOSE AND CONTINUING FOR DURATION OF STUDY (STUDY DURATION, Route [Inhibitor]: ORAL, Species: MOUSE, Strain/Sex: SENCAR/MALE, Target Tissue: Type of Lesion: SKIN: PAPILLOMA, Dose [Carcinogen]: 100 NMOL IN 200 µL ACETONE ONCE, Promoter: 12-O-TETRADECANOYLPHORBOL-13-ACETATE, 16561-29-8","95%, 100%, -5%, not calculated"
same,"tumour outcome (control, treated, inhibition, significance)","Carcinogen: N-METHYL-N'-NITRO-N-NITROSOGUANIDINE, 70-25-7, Dose [Inhibitor]: 10 MG/KG BW IN DEPOT FORM 1/2 D BEGINNING 1 WK POST LAST CARCINOGEN DOSE FOR DURATION OF STUDY (STUDY DURATION: 52 WK), Route [Inhibitor]: SUBCUTANEOUS, Species: RAT, Strain/Sex: WISTAR/MALE, Target Tissue: Type of Lesion: STOMACH: ADENOCARCINOMA, Dose [Carcinogen]: 50 UG/ML IN DRINKING WATER FOR 25 WK, Promoter: NONE USED","12/19 (63%), 13/19 (68%), -8%, not calculated"
same,"tumour outcome (control, treated, inhibition, significance)","Carcinogen: N-METHYL-N'-NITRO-N-NITROSOGUANIDINE, 70-25-7, Dose [Inhibitor]: 20 MG/KG BW IN DEPOT FORM 1/2 D BEGINNING 1 WK POST LAST CARCINOGEN DOSE FOR DURATION OF STUDY (STUDY DURATION: 52 WK), Route [Inhibitor]: SUBCUTANEOUS, Species: RAT, Strain/Sex: WISTAR/MALE, Target Tissue: Type of Lesion: STOMACH: ADENOCARCINOMA, Dose [Carcinogen]: 50 UG/ML IN DRINKING WATER FOR 25 WK, Promoter: NONE USED","12/19 (63%), 11/19 (58%), 8%, not calculated"
